Data set [1] addresses T1, Glucocorticoid receptor (Homo sapiens) (UniProt P04150).
T1 sequence (whole entry): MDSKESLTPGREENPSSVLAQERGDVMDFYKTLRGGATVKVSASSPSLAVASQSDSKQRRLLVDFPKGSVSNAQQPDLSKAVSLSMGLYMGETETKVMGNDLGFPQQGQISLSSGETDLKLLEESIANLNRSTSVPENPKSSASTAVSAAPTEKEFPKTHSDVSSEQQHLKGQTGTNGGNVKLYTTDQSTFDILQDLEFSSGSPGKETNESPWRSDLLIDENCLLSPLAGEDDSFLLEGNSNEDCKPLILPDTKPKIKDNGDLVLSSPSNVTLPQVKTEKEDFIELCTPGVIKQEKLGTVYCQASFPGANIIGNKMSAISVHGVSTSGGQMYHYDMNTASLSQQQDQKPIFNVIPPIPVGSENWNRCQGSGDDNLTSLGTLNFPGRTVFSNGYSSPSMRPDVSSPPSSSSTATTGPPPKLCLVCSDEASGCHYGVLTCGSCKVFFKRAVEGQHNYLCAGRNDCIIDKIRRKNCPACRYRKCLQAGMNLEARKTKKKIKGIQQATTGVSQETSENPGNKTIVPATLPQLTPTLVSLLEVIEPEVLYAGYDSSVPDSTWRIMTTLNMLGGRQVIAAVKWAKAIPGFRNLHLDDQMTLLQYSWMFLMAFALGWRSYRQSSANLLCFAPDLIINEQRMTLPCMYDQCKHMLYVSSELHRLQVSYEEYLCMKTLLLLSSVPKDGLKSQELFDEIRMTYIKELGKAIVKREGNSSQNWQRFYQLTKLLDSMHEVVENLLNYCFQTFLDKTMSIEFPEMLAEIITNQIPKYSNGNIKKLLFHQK
The experiment in a line: Transrepression of glucocorticoid receptor in human A549 cells assessed as inhibition of PMA-induced AP-1 activity by luciferase reporter gene assay relative to dexamethasone. The format is cell-based.

Data set [2] deals with T2, Glucocorticoid receptor (GR-LBD) (Homo sapiens, UniProt P04150).
T2 sequence (P04150 whole entry): T1 sequence (whole entry)
Description: (§1) Transactivation of GR-LBD expressed in human HeLa cells co-expressing GAL4-DBD by luciferase reporter gene assayrelative to dexamethasone. In kind it is cell-based. The note with it: HeLa cells expressing GR-LBD and GAL4-DBD, read-out: Efficacy.

The target in data set [3] is T3, Glucocorticoid receptor (Homo sapiens, UniProt P04150).
T3 sequence (P04150 whole entry): T1 sequence (whole entry)
Description: Transrepression of glucocorticoid receptor in human A549 cells assessed as inhibition of PMA-induced AP-1 activity by luciferase reporter gene assay. The format is cell-based.

Data set [4] deals with T3, Glucocorticoid receptor. The experiment in a line: Binding affinity to glucocorticoid receptor-LBD (unknown origin) by fluorescence polarization assay.
Data set [5] concerns the target T3, Glucocorticoid receptor. Description: Transactivation of GR-LBD expressed in human HeLa cells co-expressing GAL4-DBD by luciferase reporter gene assay. The format is cell-based.
Data set [6] concerns the target T3, Glucocorticoid receptor. The data set is described as §1. The note with it: hela. In kind it is cell-based.

On to `CC(C)(C(=O)Nc1nccs1)C(c1ccccc1)c1ccn2c(-c3ccccc3)ncc2c1` (centres undefined) [listing 1 of 2 here], for which, in data set [1], the Efficacy amounted to 70%.

With `CC(C)(C(=O)Nc1nccs1)C(c1ccccc1)c1ccn2c(-c3ccccc3)ncc2c1` (centres undefined) [listing 2 of 2 here], the Emax in data set [2] turned out to be 32%. Further, the figures for the EC50 in data set [3] and in data set [5] were 0.06 µM and 0.36 µM, respectively. Also, the Ki in data set [4] is 0.005 µM.

For the compound `CC(C)(C(=O)Nc1nncs1)C(c1ccccc1)c1ccc2c(-c3ccc(F)cc3)ncn2c1` (single isomer, unassigned; enantiomer 1) [listing 1 of 2 here], the Efficacy in data set [1] was found to be 24%.

`CC(C)(C(=O)Nc1nccs1)C(c1ccccc1)c1ccc2c(-c3ccc(F)cc3)ncn2c1` (single isomer, unassigned; enantiomer 2) [listing 1 of 2 here] returned an Efficacy in data set [6] of 69%. Further, the EC50 in data set [3] came to 0.006 µM; in data set [5], 0.06 µM. In data set [4], this compound displayed a Ki of 0.001 µM.

For `CC(C)(C(=O)Nc1nccs1)C(c1ccccc1)c1ccc2cnccc2c1` (centres undefined), the EC50 in data set [3] was more than 10 µM. In addition, the Ki in data set [4] was determined as 0.015 µM.

With `CC(C)(C(=O)Nc1nccs1)C(c1ccccc1)c1ccc2c(-c3ccc(F)cc3)ncn2c1` (centres undefined) [listing 1 of 2 here], the Emax in data set [2] turned out to be 74%. For the same compound, the EC50 came out at 0.016 µM in data set [3] and 0.103 µM in data set [5]. In data set [4], the Ki was 0.003 µM.

Regarding `CC(C)(C(=O)Nc1nncs1)C(c1ccccc1)c1ccc2c(-c3ccc(F)cc3)ncn2c1` (centres undefined) [listing 1 of 2 here], the Emax in data set [2] stood at 66%. The EC50 in data set [3] is 0.036 µM; in data set [5] it was 0.262 µM. The compound also had a Ki in data set [4] of 0.003 µM.

For `CC(C)(C(=O)Nc1nccs1)C(c1ccccc1)c1ccc2c(-c3ccc(F)cc3F)ncn2c1` (centres undefined), the Efficacy in data set [1] was 75%. The Emax in data set [2] was found to be 73%. Further, the EC50 in data set [3] was 0.014 µM; in data set [5], 0.078 µM. For the same compound, the inhibition constant (Ki) in data set [4] was 0.002 µM.

Consider `CC(C)(C(=O)Nc1nccs1)C(c1ccccc1)c1ccc2[nH]ccc2c1` (centres undefined), for which the Efficacy in data set [1] was 61%. The EC50 in data set [3] came out at 0.23 µM. For the same compound, the Ki in data set [4] stood at 0.007 µM.

Turning to `CC(C)(C(=O)Nc1nccs1)C(c1ccccc1)c1ccc2nncn2c1` (centres undefined), in data set [3], the EC50 is more than 10 µM.

With `CC(C)(C(=O)Nc1nccs1)C(c1ccccc1)c1ccc2c(-c3ccc(F)cc3)ncn2c1` (centres undefined) [listing 2 of 2 here], in data set [1], the Efficacy worked out at 66%.

With `CC(C)(C(=O)Nc1nccs1)C(c1ccccc1)c1ccc2cncn2c1` (centres undefined), the EC50 in data set [3] is more than 10 µM.

Consider `CC(C)(C(=O)Nc1nncs1)C(c1ccccc1)c1ccc2c(-c3ccc(F)cc3)ncn2c1` (single isomer, unassigned; enantiomer 1) [listing 2 of 2 here], for which the EC50 in data set [3] was 1.2 µM; in data set [5] it was more than 10 µM. Also, in data set [4], the inhibition constant (Ki) stood at 0.006 µM.

Turning to `CC(C)(C(=O)Nc1nncs1)C(c1ccccc1)c1ccc2c(-c3ccc(F)cc3)ncn2c1` (single isomer, unassigned; enantiomer 2) [listing 1 of 2 here], in data set [1], the Efficacy was determined as 72%.

For the compound `CC(C)(C(=O)Nc1nncs1)C(c1ccccc1)c1ccc2c(-c3ccc(F)c(Cl)c3)ncn2c1` (centres undefined), the Efficacy in data set [1] came to 20%. Moreover, the values for the EC50 in data set [3] and in data set [5] were 0.111 µM and more than 10 µM, respectively. Besides, the Ki in data set [4] stood at 0.005 µM.

For `CC(C)(C(=O)Nc1nncs1)C(c1ccccc1)c1ccn2c(-c3ccccc3)ncc2c1` (single isomer, unassigned; enantiomer 1) [listing 1 of 2 here], the EC50 in data set [3] was 1.12 µM; in data set [5], more than 10 µM. Moreover, the Ki in data set [4] is 0.005 µM.

As to `CC(C)(C(=O)Nc1nncs1)C(c1ccccc1)c1ccn2c(-c3ccccc3)ncc2c1` (centres undefined) [listing 1 of 2 here], the Efficacy in data set [1] is 66%.

Consider `CC(C)(C(=O)Nc1nncs1)C(c1ccccc1)c1cc(-c2ccc(F)cc2)c2ncccc2c1` (centres undefined), for which the EC50 in data set [3] was more than 10 µM. Also, affinity in data set [4] was put at a Ki of 0.196 µM.

As for `CC(C)(C(=O)Nc1nccs1)C(c1ccccc1)c1ccc2c(-c3ccc(F)c(Cl)c3)ncn2c1` (centres undefined), in data set [1], the Efficacy turned out to be 26%. Further, the concentration for a half-maximal effect (EC50) is 0.114 µM in data set [3] and more than 10 µM in data set [5]. Further, affinity in data set [4] was put at a Ki of 0.008 µM.

Take `CC(C)(C(=O)Nc1nccs1)C(c1ccccc1)c1ccc2ncccc2c1` (centres undefined): in data set [3], the EC50 was more than 10 µM. In data set [4], this compound had a Ki of 0.085 µM.

On to `CC(C)(C(=O)Nc1nccs1)C(c1ccccc1)c1ccc2c(-c3ccc(F)cc3)ncn2c1` (single isomer, unassigned; enantiomer 2) [listing 2 of 2 here], for which, in data set [1], the Efficacy was 73%.

Regarding `CC(C)(C(=O)Nc1nncs1)C(c1ccccc1)c1ccn2c(-c3ccccc3)ncc2c1` (single isomer, unassigned; enantiomer 2) [listing 1 of 2 here], the Efficacy in data set [1] is 61%.

Regarding `CC(C)(C(=O)Nc1nccs1)C(c1ccccc1)c1ccc2c(ccn2-c2ccc(F)cc2)c1` (centres undefined), the Efficacy in data set [1] was 60%. Also, in data set [3], the EC50 was 0.22 µM.

`CC(C)(C(=O)Nc1nccs1)C(c1ccccc1)c1ccn2cncc2c1` (centres undefined): the Efficacy in data set [1] stood at 39%. In data set [3], the EC50 is 1.2 µM. This compound came in with a Ki in data set [4] of 0.018 µM.

As to `CC(C)(C(=O)Nc1nccs1)C(c1ccccc1)c1ccc2c(-c3ccc(F)cc3)ncn2c1` (single isomer, unassigned; enantiomer 1), the values for the EC50 in data set [3] and in data set [5] were more than 5 µM and more than 10 µM, respectively. Moreover, the Ki in data set [4] turned out to be 0.004 µM.

With `CC(C)(C(=O)Nc1nncs1)C(c1ccccc1)c1ccc2c(-c3cccc(C#N)c3)ncn2c1` (centres undefined), in data set [1], the Efficacy turned out to be 32%. Further, the EC50 in data set [3] was 1.35 µM; in data set [5], more than 10 µM. Also, affinity in data set [4] was put at a Ki of 0.004 µM.

As to `CC(C)(C(=O)Nc1nncs1)C(c1ccccc1)c1ccc2c(-c3ccc(F)cc3)ncn2c1` (single isomer, unassigned; enantiomer 2) [listing 2 of 2 here], in data set [6], the Efficacy was 65%. The figures for the EC50 in data set [3] and in data set [5] were 0.024 µM and 0.118 µM, respectively. In addition, in data set [4], affinity was put at a Ki of 0.002 µM.

Regarding `CC(C)(C(=O)Nc1nncs1)C(c1ccccc1)c1ccc2c(-c3ccc(F)cc3F)ncn2c1` (centres undefined), the Efficacy in data set [1] came out at 69%. Besides, in data set [2], the Emax is 61%. Moreover, the concentration for a half-maximal effect (EC50) is 0.015 µM in data set [3] and 0.117 µM in data set [5]. In data set [4], this compound gave a Ki of 0.001 µM.

Take `CC(C)(C(=O)Nc1nccs1)C(c1ccccc1)c1ccn2c(-c3ccccc3)ncc2c1` (single isomer, unassigned; enantiomer 1): the concentration giving a half-maximal response (EC50) is more than 2.5 µM in data set [3] and more than 10 µM in data set [5]. In data set [4], this compound registered a Ki of 0.011 µM.

Compound `CC(C)(C(=O)Nc1nncs1)C(c1ccccc1)c1ccn2c(-c3ccccc3)ncc2c1` (centres undefined) [listing 2 of 2 here] registered an Efficacy in data set [6] of 30%. In addition, the EC50 in data set [3] was 0.899 µM; in data set [5], 2 µM. For the same compound, the inhibitory constant (Ki) in data set [4] is 0.003 µM.

On to `CC(C)(C(=O)Nc1nncs1)C(c1ccccc1)c1ccc2c(-c3ccc(F)cc3)ncn2c1` (centres undefined) [listing 2 of 2 here], for which, in data set [1], the Efficacy is 68%.

On to `CC(C)(C(=O)Nc1nccs1)C(c1ccccc1)c1ccc2c(-c3cccc(C#N)c3)ncn2c1` (centres undefined), for which the Efficacy in data set [1] amounted to 30%. Further, the EC50 is 0.225 µM in data set [3] and more than 10 µM in data set [5]. Besides, the Ki in data set [4] came out at 0.004 µM.

Take `CC(C)(C(=O)Nc1nccs1)C(c1ccccc1)c1cc(-c2ccc(F)cc2)c2ncccc2c1` (centres undefined): the concentration giving a half-maximal response (EC50) in data set [3] is more than 10 µM. For the same compound, in data set [4], the affinity, expressed as Ki, was 0.285 µM.

As for `CC(C)(C(=O)Nc1nccs1)C(c1ccccc1)c1ccc2c(-c3ccc(C#N)cc3)ncn2c1` (centres undefined), the Efficacy in data set [1] came to 37%. Moreover, the EC50 was 0.089 µM in data set [3] and more than 10 µM in data set [5]. In data set [4], this compound showed a Ki of 0.004 µM.

As to `CC(C)(C(=O)Nc1nncs1)C(c1ccccc1)c1ccn2c(-c3ccccc3)ncc2c1` (single isomer, unassigned; enantiomer 2) [listing 2 of 2 here], the Emax in data set [2] amounted to 43%. The values for the concentration giving a half-maximal response (EC50) in data set [3] and in data set [5] were 0.254 µM and 0.613 µM, respectively. For the same compound, the Ki in data set [4] was determined as 0.001 µM.

On to `CC(C)(C(=O)Nc1nncs1)C(c1ccccc1)c1ccc2c(-c3ccc(C#N)cc3)ncn2c1` (centres undefined), for which, in data set [1], the Efficacy was 37%. For the same compound, the EC50 in data set [3] is 0.14 µM; in data set [5], more than 10 µM. The compound further had a Ki in data set [4] of 0.002 µM.

As for `CC(C)(C(=O)Nc1nncs1)C(c1ccccc1)c1ccn2c(-c3ccccc3)ncc2c1` (single isomer, unassigned; enantiomer 1) [listing 2 of 2 here], the Efficacy in data set [1] turned out to be 34%.

Take `CC(C)(C(=O)Nc1nncs1)C(c1ccccc1)c1ccc2c(-c3cccc(CO)c3)ncn2c1` (centres undefined): the EC50 was more than 5 µM in data set [3] and more than 10 µM in data set [5]. For the same compound, the affinity in data set [4] corresponds to a Ki of 0.005 µM.

The record behind these values is ChEMBL document CHEMBL2424642, “Heterocyclic glucocorticoid receptor modulators with a 2,2-dimethyl-3-phenyl-N-(thiazol or thiadiazol-2-yl)propanamide core” (Bioorg Med Chem Lett, 2013).
